In one data set the target is T1, apTKRPR-B (Aplysia californica, UniProt A0AAU7STS1).
T1 sequence (A0AAU7STS1 1-447): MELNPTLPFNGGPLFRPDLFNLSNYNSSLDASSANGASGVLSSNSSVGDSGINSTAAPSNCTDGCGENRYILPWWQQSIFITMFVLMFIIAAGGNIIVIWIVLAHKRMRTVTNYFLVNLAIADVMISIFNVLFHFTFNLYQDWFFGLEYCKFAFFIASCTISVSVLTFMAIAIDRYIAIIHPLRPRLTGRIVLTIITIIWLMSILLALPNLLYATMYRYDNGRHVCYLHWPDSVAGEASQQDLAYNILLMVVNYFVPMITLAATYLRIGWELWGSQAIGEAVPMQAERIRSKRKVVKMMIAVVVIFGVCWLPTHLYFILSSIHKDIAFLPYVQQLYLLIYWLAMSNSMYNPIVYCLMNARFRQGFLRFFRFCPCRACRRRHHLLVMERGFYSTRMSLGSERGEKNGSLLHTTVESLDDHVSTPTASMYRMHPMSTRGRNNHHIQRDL
As to the kind of experiment: IP1 accumulation assay, CHO-K1 cells transiently expressing apTKRPR-B. The data set is classed as cell-based. How it is done:
(§1) To express putative Aplysia receptors transiently in CHO-K1 cells, the cDNAs were subcloned into the pcDNA3.1(+) or pcDNA3.1(+)-FLAG (for ELISA experiments only, see “Cell surface expression analysis by ELISA” section) expression vector. On the day before transfection, the CHO-K1 cells were passaged into 60 mm diameter tissue culture–treated dishes, and the transfection experiments were performed when the cells were grown to 70 to 90% confluence. CHO-K1 cells were transfected with the cDNA plasmid constructs using Turbofect Transfection reagent (Thermo Fisher Scientific, R0531), following the manufacturer’s instructions. […] The DNA/TurboFect mixture dropwise was then added to the dish, and the cells were incubated at 37 °C in a humidified incubator containing 5% CO2 overnight.
(§2) On the third day, the activation of the putative receptors was detected by monitoring intracellular IP1 concentration using an IP-One Gq kit (Cisbio, 62IPAPEB) in Tecan Spark. Except for using 0.5x reagent, all other procedures were performed following the manufacturer’s instructions. IP1 accumulation assay measures the accumulation of IP1, which is hydrolyzed from the second messenger, and inositol triphosphate. Inositol triphosphate is generated by the Gαq pathway when a GPCR is activated by an appropriate ligand.

For data set [1] the following is noted: trifluoroacetate counter ion, ref ChinaPeptides Co., Ltd. certificate of analysis (Fig. S21), cited from earlier work.
The target of another data set is T2, apTKRPR-A (Aplysia californica, UniProt A0AAU7SSZ1).
T2 sequence (A0AAU7SSZ1 1-398): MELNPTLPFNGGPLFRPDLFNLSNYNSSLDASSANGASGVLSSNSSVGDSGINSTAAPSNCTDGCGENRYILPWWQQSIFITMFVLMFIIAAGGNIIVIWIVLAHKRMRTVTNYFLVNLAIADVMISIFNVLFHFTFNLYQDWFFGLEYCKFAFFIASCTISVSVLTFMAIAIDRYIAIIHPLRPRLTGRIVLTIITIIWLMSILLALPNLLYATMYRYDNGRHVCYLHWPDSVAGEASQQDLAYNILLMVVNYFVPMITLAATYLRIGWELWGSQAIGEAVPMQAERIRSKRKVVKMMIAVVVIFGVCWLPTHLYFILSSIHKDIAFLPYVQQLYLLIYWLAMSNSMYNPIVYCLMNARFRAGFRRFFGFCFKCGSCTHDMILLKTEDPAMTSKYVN
Kind of data set: IP1 accumulation assay, CHO-K1 cells transiently expressing apTKRPR-A. The data set is classed as cell-based. As for the experimental part: as §1, §2

In data set [2] the target is Aplysia tachykinin-related peptide receptor B (apTKRPR-B) (Aplysia californica).
For data set [3], the target named is Aplysia tachykinin-related peptide receptor A (apTKRPR-A) (Aplysia californica).
Where [4] appears, read: log10 of EC50 in M, negative, IP1 accumulation, CHO-K1, mean ± SD of at least three independent experiments (apTKRP-1 n = 9; apTKRP-2a n = 11; apTKRP-2b n = 19; analogs, apTKRP-2b-OH n = 4), read-out: apTKRPR-B log[EC50] (converted).
The mark [5] stands for this setting: log10 of EC50 in M, negative, IP1 accumulation, CHO-K1, mean ± SD of at least three independent experiments (apTKRP-1 n = 9; apTKRP-2a n = 11; apTKRP-2b n = 19; analogs, apTKRP-2b-OH n = 4), read-out: apTKRPR-A log[EC50] (converted).

≈ marks a conversion by molar mass, not a printed value. Where two headings read alike, the source gives them in different places. Non-standard residues stand in square brackets, D forms with d. Residues, ends and D or L forms follow the SMILES beside them. No end group written: not given here. pGlu = O=C1CC[C@@H](C(=O)O)N1

By EC50 is commonly meant the concentration giving half of the maximal effect. As usually defined, the Solubility is how much of the substance goes into solution per volume. Take `CC(C)C[C@H](NC(=O)[C@H](Cc1c[nH]cn1)NC(=O)[C@H](C)NC(=O)[C@@H]1CCC(=O)N1)C(=O)NCC(=O)N[C@@H](Cc1ccccc1)C(=O)N[C@@H](Cc1c[nH]cn1)C(=O)NCC(=O)N[C@@H](CO)C(=O)N[C@@H](CCCNC(=N)N)C(N)=O` [[Ala^2]apTKRP-2b] ([pGlu]AHLGFHGSR-NH2): the figures for the EC50 on apTKRPR-B and at apTKRPR-A were 33.1 nM and 309 nM, respectively. Further, the Solubility in data set [1] (in 15%ACN/85%H2O) was 1000 µg/mL (≈ 916 µM).

Consider `CC(C)C[C@H](NC(=O)[C@H](C)NC(=O)[C@@H]1CCCN1C(=O)[C@@H]1CCC(=O)N1)C(=O)NCC(=O)N[C@@H](Cc1ccccc1)C(=O)N[C@@H](Cc1c[nH]cn1)C(=O)NCC(=O)N[C@@H](CO)C(=O)N[C@@H](CCCNC(=N)N)C(N)=O` [[Ala^3]apTKRP-2b] ([pGlu]PALGFHGSR-NH2), for which the concentration for a half-maximal effect (EC50) on apTKRPR-B is 32.4 nM; on apTKRPR-A, 295 nM. Besides, the Solubility in data set [1] (in 15%ACN/85%H2O) is 1000 µg/mL (≈ 951 µM).

As to `C[C@H](NC(=O)[C@H](Cc1c[nH]cn1)NC(=O)[C@@H]1CCCN1C(=O)[C@@H]1CCC(=O)N1)C(=O)NCC(=O)N[C@@H](Cc1ccccc1)C(=O)N[C@@H](Cc1c[nH]cn1)C(=O)NCC(=O)N[C@@H](CO)C(=O)N[C@@H](CCCNC(=N)N)C(N)=O` [[Ala^4]apTKRP-2b] ([pGlu]PHAGFHGSR-NH2), the values for the EC50 at apTKRPR-B and at apTKRPR-A were 1.7 nM and 9.77 nM, respectively. The Solubility in data set [1] (in 13%ACN/87%H2O) was 1000 µg/mL (≈ 930 µM).

Turning to `CC(C)C[C@H](NC(=O)[C@H](Cc1c[nH]cn1)NC(=O)[C@@H]1CCCN1C(=O)[C@@H]1CCC(=O)N1)C(=O)N[C@@H](C)C(=O)N[C@@H](Cc1ccccc1)C(=O)N[C@@H](Cc1c[nH]cn1)C(=O)NCC(=O)N[C@@H](CO)C(=O)N[C@@H](CCCNC(=N)N)C(N)=O` [[Ala^5]apTKRP-2b] ([pGlu]PHLAFHGSR-NH2), the concentration for a half-maximal effect (EC50) on apTKRPR-B is 537 nM; on apTKRPR-A, 1660 nM. For the same molecule, in data set [1] (in 15%ACN/85%H2O), the Solubility is 1000 µg/mL (≈ 884 µM).

For the molecule `CC(C)C[C@H](NC(=O)[C@H](Cc1c[nH]cn1)NC(=O)[C@@H]1CCCN1C(=O)[C@@H]1CCC(=O)N1)C(=O)NCC(=O)N[C@@H](C)C(=O)N[C@@H](Cc1c[nH]cn1)C(=O)NCC(=O)N[C@@H](CO)C(=O)N[C@@H](CCCNC(=N)N)C(N)=O` [[Ala^6]apTKRP-2b] ([pGlu]PHLGAHGSR-NH2), the values for the 50% effective concentration (EC50) on apTKRPR-B and on apTKRPR-A were 537 nM and 1510 nM, respectively. In addition, the Solubility in data set [1] (in 13%ACN/87%H2O) was 1000 µg/mL (≈ 960 µM).

In the case of `CC(C)C[C@H](NC(=O)[C@H](Cc1c[nH]cn1)NC(=O)[C@@H]1CCCN1C(=O)[C@@H]1CCC(=O)N1)C(=O)NCC(=O)N[C@@H](Cc1ccccc1)C(=O)N[C@@H](C)C(=O)NCC(=O)N[C@@H](CO)C(=O)N[C@@H](CCCNC(=N)N)C(N)=O` [[Ala^7]apTKRP-2b] ([pGlu]PHLGFAGSR-NH2), the Solubility in data set [1] (in 15%ACN/85%H2O) is 1000 µg/mL (≈ 951 µM). Also, the EC50 on apTKRPR-A was 1070 nM.

For the molecule `CC(C)C[C@H](NC(=O)[C@H](Cc1c[nH]cn1)NC(=O)[C@@H]1CCCN1C(=O)[C@@H]1CCC(=O)N1)C(=O)NCC(=O)N[C@@H](Cc1ccccc1)C(=O)N[C@@H](Cc1c[nH]cn1)C(=O)N[C@@H](C)C(=O)N[C@@H](CO)C(=O)N[C@@H](CCCNC(=N)N)C(N)=O` [[Ala^8]apTKRP-2b] ([pGlu]PHLGFHASR-NH2), the figures for the EC50 at apTKRPR-B and at apTKRPR-A were 3.09 nM and 20.9 nM, respectively. Moreover, in data set [1] (in 15%ACN/85%H2O), the Solubility was 1000 µg/mL (≈ 884 µM).

As to `CC(C)C[C@H](NC(=O)[C@H](Cc1c[nH]cn1)NC(=O)[C@@H]1CCCN1C(=O)[C@@H]1CCC(=O)N1)C(=O)NCC(=O)N[C@@H](Cc1ccccc1)C(=O)N[C@@H](Cc1c[nH]cn1)C(=O)NCC(=O)N[C@@H](C)C(=O)N[C@@H](CCCNC(=N)N)C(N)=O` [[Ala^9]apTKRP-2b] ([pGlu]PHLGFHGAR-NH2), the concentration giving a half-maximal response (EC50) on apTKRPR-B was 17.4 nM; at apTKRPR-A, 195 nM. In addition, the Solubility in data set [1] (in 15%ACN/85%H2O) is 1000 µg/mL (≈ 908 µM).

With `CC(C)C[C@H](NC(=O)[C@H](Cc1c[nH]cn1)NC(=O)[C@@H]1CCCN1C(=O)[C@@H]1CCC(=O)N1)C(=O)NCC(=O)N[C@@H](Cc1ccccc1)C(=O)N[C@@H](Cc1c[nH]cn1)C(=O)NCC(=O)N[C@@H](CO)C(=O)N[C@@H](C)C(N)=O` [[Ala^10]apTKRP-2b] ([pGlu]PHLGFHGSA-NH2), the concentration for a half-maximal effect (EC50) at apTKRPR-B and at apTKRPR-A was more than 10000 nM in each case. Further, the Solubility in data set [1] (in 15%ACN/85%H2O) was 1000 µg/mL (≈ 969 µM).

For the molecule `CC(C)C[C@H](NC(=O)[C@H](Cc1c[nH]cn1)NC(=O)[C@@H]1CCCN1C(=O)[C@@H]1CCC(=O)N1)C(=O)NCC(=O)N[C@@H](Cc1ccccc1)C(=O)N[C@@H](Cc1c[nH]cn1)C(=O)NCC(=O)N[C@@H](CO)C(=O)N[C@@H](CCCNC(=N)N)C(=O)O` [apTKRP-2b-OH] ([pGlu]PHLGFHGSR-OH), the EC50 at apTKRPR-B (IP1 accumulation, CHO-K1, from average log[EC50], read-out: apTKRPR-B [EC50]) was more than 10000 nM; on apTKRPR-B (setting [4]) it was more than 10000 nM; at apTKRPR-A (IP1 accumulation, CHO-K1, from average log[EC50], read-out: apTKRPR-A [EC50]) it was more than 10000 nM; on apTKRPR-A (setting [5]), more than 10000 nM.

For FKPSGFMGSR-NH2 [apTKRP-1], the concentration for a half-maximal effect (EC50) is 24.5 nM on apTKRPR-B (setting [4]) and 145 nM on apTKRPR-A (setting [5]).

B1: apTKRP-2b analog with Asp instead of Gly at position eight (peptide)
peptide: [pGlu]PHLGFHDSR-NH2
SMILES: CC(C)C[C@H](NC(=O)[C@H](Cc1c[nH]cn1)NC(=O)[C@@H]1CCCN1C(=O)[C@@H]1CCC(=O)N1)C(=O)NCC(=O)N[C@@H](Cc1ccccc1)C(=O)N[C@@H](Cc1c[nH]cn1)C(=O)N[C@@H](CC(=O)O)C(=O)N[C@@H](CO)C(=O)N[C@@H](CCCNC(=N)N)C(N)=O
Turning to B1, the EC50 of IP1 accumulation in CHO-K1 cells expressing the receptor in data set [2] and in data set [3] was more than 10000 nM each time.

B2: apTKRP-2b analog with Leu instead of Gly at position eight (peptide)
peptide: [pGlu]PHLGFHLSR-NH2
SMILES: CC(C)C[C@H](NC(=O)[C@H](Cc1c[nH]cn1)NC(=O)[C@@H]1CCCN1C(=O)[C@@H]1CCC(=O)N1)C(=O)NCC(=O)N[C@@H](Cc1ccccc1)C(=O)N[C@@H](Cc1c[nH]cn1)C(=O)N[C@@H](CC(C)C)C(=O)N[C@@H](CO)C(=O)N[C@@H](CCCNC(=N)N)C(N)=O
Take B2: the EC50 of IP1 accumulation in CHO-K1 cells expressing the receptor in data set [2] and in data set [3] was more than 10000 nM each time.

B3: apTKRP-2b analog with Lys instead of Gly at position eight (peptide)
peptide: [pGlu]PHLGFHKSR-NH2
SMILES: CC(C)C[C@H](NC(=O)[C@H](Cc1c[nH]cn1)NC(=O)[C@@H]1CCCN1C(=O)[C@@H]1CCC(=O)N1)C(=O)NCC(=O)N[C@@H](Cc1ccccc1)C(=O)N[C@@H](Cc1c[nH]cn1)C(=O)N[C@@H](CCCCN)C(=O)N[C@@H](CO)C(=O)N[C@@H](CCCNC(=N)N)C(N)=O
With B3, the EC50 of IP1 accumulation in CHO-K1 cells expressing the receptor in data set [2] and in data set [3] was more than 10000 nM each time.

(Values after publication PMC11365428 (The Journal of Biological Chemistry, 2024).)
